The record followed here is ChEMBL document CHEMBL1201862, “PubChem BioAssay data set” (2004).

Activity calls are given as the source filed them.

The EC50 is the concentration giving half of the maximal effect. For orientation: AC50 means the midpoint of the concentration-response curve, whichever way the signal moves. In general, IC50 refers to the concentration that gives 50% inhibition. For orientation: CC50 means the concentration giving 50% cytotoxicity.

One experiment addresses Transthyretin (Homo sapiens, UniProt P02766). As to the kind of experiment: Luminescence-based cell-based high throughput dose response assay to identify activators of Transthyretin (TTR) transcription. It is filed as functional.
Another experiment relates to HeLa. As to the kind of experiment: HeLa cell cytotoxicity, dose response, cytotoxicity control, ATP luminescence, cherry-pick samples (AID 687004). It is filed as functional, cell-based. The following applies: Homo sapiens.
A further experiment has as its system HEK293. As to the kind of experiment: HEK293T cell cytotoxicity, dose response, cytotoxicity control, ATP luminescence, cherry-pick samples (AID 687005).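 Also: cells exposed to compound for 48 hours.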 The format is functional, cell-based. The following applies: Homo sapiens.
Experiment [1] can be described thus: HEK293 Cytotoxicity Assay Measured in Cell-Based System Using Plate Reader - 7071-01_Inhibitor_Dose_CherryPick_Activity_Set2. It is filed as functional.
A short description of experiment [2]: Concentration-dependent survival of SW480 colon cancer line, luminescence detection with CellTiter-Glo, half-maximal inhibitory concentration (AID 1117338). The format is functional. A general note: In ATP-based viability assays light output follows the ATP content of the culture.
Experiment [3] can be described thus: RKO cell viability reduction, dose response, CellTiter-Glo luminescence (AID 1117322). The format is functional.
Experiment [4] in a line: cytotoxicity toward HCT116 cells – cell-based, CellTiter-Glo luminescence, IC50, dose response (AID 1117332). It is filed as functional. The following applies: HCT-116.
Experiment [5] can be described thus: SNU-C1 cell viability reduction, dose response, CellTiter-Glo luminescence (AID 1117323). It is filed as functional, cell-based.
Experiment [6] can be described thus: cytotoxicity toward Colo320 cells – cell-based, CellTiter-Glo luminescence, IC50, dose response (AID 1117334). It is filed as functional. The following applies: COLO 320.
A short description of experiment [7]: cytotoxicity toward HT-29 cells – cell-based, CellTiter-Glo luminescence, IC50, dose response (AID 1117330). The format is functional.
Experiment [8] can be described thus: CellTiter-Glo luminescent dose response of DLD-1 viability loss (AID 1117352). The format is functional.
The target in another experiment is Genome polyprotein (dengue virus type 2, UniProt P29990). In words: Dengue-2 NS5 methyltransferase inhibitors, primary screen, biochemical, confirmation dose response (AID 588689). It is filed as functional.
Chain of Genome polyprotein (P29990 2492-3391 limits assumed): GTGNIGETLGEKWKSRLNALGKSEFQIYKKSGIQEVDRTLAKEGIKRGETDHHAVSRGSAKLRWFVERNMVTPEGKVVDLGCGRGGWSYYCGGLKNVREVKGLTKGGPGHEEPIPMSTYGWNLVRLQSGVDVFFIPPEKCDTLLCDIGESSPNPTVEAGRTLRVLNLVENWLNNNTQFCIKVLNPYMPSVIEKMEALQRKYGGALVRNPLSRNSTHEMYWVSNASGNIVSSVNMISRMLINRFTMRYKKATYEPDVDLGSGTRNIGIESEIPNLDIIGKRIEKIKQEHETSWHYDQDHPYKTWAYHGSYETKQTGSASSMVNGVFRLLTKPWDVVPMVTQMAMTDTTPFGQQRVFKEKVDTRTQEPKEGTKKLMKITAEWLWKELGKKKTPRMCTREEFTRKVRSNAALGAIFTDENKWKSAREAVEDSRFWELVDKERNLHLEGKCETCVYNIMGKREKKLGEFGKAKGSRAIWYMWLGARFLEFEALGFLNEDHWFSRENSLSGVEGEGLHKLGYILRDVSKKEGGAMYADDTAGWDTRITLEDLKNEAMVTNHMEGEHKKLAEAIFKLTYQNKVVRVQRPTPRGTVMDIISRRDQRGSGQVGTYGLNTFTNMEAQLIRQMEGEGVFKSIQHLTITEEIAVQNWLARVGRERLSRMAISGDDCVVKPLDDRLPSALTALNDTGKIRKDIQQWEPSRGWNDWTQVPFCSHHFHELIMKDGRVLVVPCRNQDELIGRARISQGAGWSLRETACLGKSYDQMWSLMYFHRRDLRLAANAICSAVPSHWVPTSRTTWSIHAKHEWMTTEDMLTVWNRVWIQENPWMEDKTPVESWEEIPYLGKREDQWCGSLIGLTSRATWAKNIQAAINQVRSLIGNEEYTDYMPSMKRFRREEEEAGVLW
In the next experiment the target is Caspase-6 (Homo sapiens, UniProt P55212). As to the kind of experiment: human caspase-6 inhibitors, dose response, biochemical, VEID-R110 fluorescence, cherry-pick (AID 720632).
Chain of Caspase-6 (P55212 24-179 limits assumed): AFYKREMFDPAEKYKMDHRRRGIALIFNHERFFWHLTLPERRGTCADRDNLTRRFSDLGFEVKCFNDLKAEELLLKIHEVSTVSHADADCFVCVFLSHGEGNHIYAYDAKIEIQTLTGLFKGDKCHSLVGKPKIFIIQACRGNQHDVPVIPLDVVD
Chain of Caspase-6 (P55212 194-293 limits assumed): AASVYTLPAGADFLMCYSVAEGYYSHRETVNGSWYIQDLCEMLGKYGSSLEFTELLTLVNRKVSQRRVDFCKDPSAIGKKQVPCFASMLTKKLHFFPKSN
In a further experiment the target is T1, Protein Tat (Human immunodeficiency virus type 1 group M subtype B (isolate HXB2)(HIV-1), UniProt P04608).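 Also: tat binding to TAR RNA read out by fluorescence polarization.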
T1 sequence (P04608 whole entry): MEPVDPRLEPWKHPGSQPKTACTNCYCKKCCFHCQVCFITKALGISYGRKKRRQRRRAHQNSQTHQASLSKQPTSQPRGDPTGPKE
It is filed as functional.

Experiment [9] can be described thus: THP-1 cell cytotoxicity, dose response, cytotoxicity control for Vif-APOBEC3G degradation inhibitor project, THP-1 cells (AID 1117359). The format is functional. The following applies: Human immunodeficiency virus 1, THP-1.
The nature of experiment [10]: inhibitors of Vif binding to APOBEC3G peptide, primary screen, biochemical, TR-FRET, GST-Vif 1-94, biotin-A3G peptide, dose response retest (AID 1117319).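 Also: TR-FRET signal of purified GST-Vif binding a biotinylated A3G peptide; inhibitors lower the FRET signal by blocking Vif and A3G binding.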 The format is functional.
Experiment [11] can be described thus: P. falciparum 3D7-ScDHODH growth inhibitors, dose response, SYBR Green, dry powder samples (AID 1159570).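 Also: parasite growth measured after 72 hours of compound exposure.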 It is filed as functional, cell-based.
A short description of experiment [12]: HepG2 cell cytotoxicity, dose response, cytotoxicity control, plate reader, dry powder samples (AID 1159569).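 Also: inhibitor potency with signal falling toward the positive control level.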 The format is functional, cell-based.
Experiment [13] in a line: P. falciparum Dd2 growth inhibitors, dose response, SYBR Green, cherry-picked samples (AID 1159567). The format is functional, cell-based.
Experiment [14] is described as follows: P. falciparum Dd2 growth inhibitors, dose response, SYBR Green, dry powder samples (AID 1159566).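 Also: potency for growth inhibition with lower SYBR green DNA signal.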 It is filed as functional, cell-based.
The nature of experiment [15]: P. falciparum ATP4 D1247Y mutant growth inhibitors, dose response, NITD609-resistant line, SYBR Green, dry powder (AID 1159571).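 Also: parasites synchronized at ring stage by sorbitol before testing.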 It is filed as functional, cell-based.
The target in experiment [16] is Endoplasmic reticulum aminopeptidase 1 (Homo sapiens, UniProt Q9NZ08). As to the kind of experiment: ERAP1 aminopeptidase inhibitors, dose response, biochemical, cherry-pick, set 2, plate reader (AID 743314).
Chain of Endoplasmic reticulum aminopeptidase 1 (Q9NZ08 whole entry): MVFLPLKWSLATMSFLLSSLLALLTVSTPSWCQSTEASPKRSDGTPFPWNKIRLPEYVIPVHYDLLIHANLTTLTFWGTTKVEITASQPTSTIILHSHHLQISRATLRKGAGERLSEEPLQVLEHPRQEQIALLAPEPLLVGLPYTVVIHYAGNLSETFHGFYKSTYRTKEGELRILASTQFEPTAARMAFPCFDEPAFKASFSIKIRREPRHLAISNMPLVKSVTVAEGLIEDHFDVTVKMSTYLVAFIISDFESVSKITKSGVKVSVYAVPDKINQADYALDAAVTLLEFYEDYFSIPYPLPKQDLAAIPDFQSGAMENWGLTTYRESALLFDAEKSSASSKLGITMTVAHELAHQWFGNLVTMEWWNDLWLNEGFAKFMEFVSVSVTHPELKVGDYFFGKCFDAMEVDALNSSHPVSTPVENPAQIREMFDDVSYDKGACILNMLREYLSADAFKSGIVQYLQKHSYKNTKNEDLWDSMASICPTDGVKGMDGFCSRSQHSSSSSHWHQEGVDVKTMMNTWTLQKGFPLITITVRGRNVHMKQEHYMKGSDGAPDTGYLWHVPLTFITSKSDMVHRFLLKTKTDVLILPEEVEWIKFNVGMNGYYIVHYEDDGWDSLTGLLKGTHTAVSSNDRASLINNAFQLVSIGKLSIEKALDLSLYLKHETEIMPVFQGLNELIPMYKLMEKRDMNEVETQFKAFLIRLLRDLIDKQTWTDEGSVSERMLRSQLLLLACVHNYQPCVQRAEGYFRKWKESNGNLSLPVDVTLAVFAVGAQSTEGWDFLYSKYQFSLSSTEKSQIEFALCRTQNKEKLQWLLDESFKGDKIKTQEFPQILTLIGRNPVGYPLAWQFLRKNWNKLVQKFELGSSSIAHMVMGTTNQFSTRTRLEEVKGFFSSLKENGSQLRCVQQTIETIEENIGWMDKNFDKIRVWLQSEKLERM
The test system of experiment [17] is BJ. In words: cytotoxicity toward BJ-TERT fibroblasts, dose response, cell-based, RAS-independent, luminescence (AID 1933). The format is functional. The following applies: Homo sapiens.
Experiment [18] relates to BJ. In words: cells. The format is functional, cell-based. The following applies: Homo sapiens.
The nature of experiment [19]: inhibitors of intracellular T. cruzi replication, confirmation, NIH3T3 host cells, beta-gal luminescence (AID 2044).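 Also: intracellular parasites grown in NIH/3T3 mouse fibroblasts as host cells; luminescent beta-galactosidase reporter signal from transgenic T. cruzi replicating inside host cells; inhibitors lower the luminescence signal.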 It is filed as functional, cell-based.
The nature of experiment [20]: cytotoxicity toward NIH3T3 fibroblasts, dose response, counter-screen, cell-based, ATP luminescence, mouse fibroblasts (AID 2010).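 Also: cells exposed to compound for about 90 hours before reading.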 It is filed as functional. A general note: The purpose of a counterscreen is to sort out artefacts and off-target activity.
Experiment [21] can be described thus: cytotoxicity toward DRD oncogenic fibroblasts, dose response, cell-based, non-viral oncogenic, luminescence (AID 1934). The format is functional. The following applies: Homo sapiens.
A short description of experiment [22]: inhibitors of PGC1a acetylation in cells, dose response, cell-based, cherry-picked samples (AID 720514).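 Also: potency may reflect raised or lowered acetylation signal.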 The format is functional.

`Cn1cc(Br)c(C(=O)N2CCc3ccccc32)n1`: the EC50 at Transthyretin was > 167 µM (inactive).

As for `CO[C@@H](CN(C)Cc1cc(F)ccc1F)[C@@H](C)CN([C@H](C)CO)S(=O)(=O)c1ccc(F)cc1`, the AC50 with HeLa was > 52 µM (inactive); in the experiment with HEK293 it was 28.4 µM (active); in [1], 28.4 µM (active).

On to `C/C(=C(/OCCOc1ccc(Cl)cc1)c1ccc(Cl)cc1Cl)n1ccnc1` [OMOCONAZOLE], for which the IC50 in experiment [2] is 8.46 µM (inactive); in experiment [3] it was > 6.67 µM (inactive); in experiment [4], > 6.67 µM (inactive); in experiment [5], 2.35 µM (active); in experiment [6], 5.86 µM (inactive); in experiment [7] it was > 6.67 µM (inactive). Also, the 50% inhibitory concentration (IC50) in experiment [8] is 4.18 µM (active).

As to `O=C(c1ccccc1NS(=O)(=O)c1ccc([N+](=O)[O-])cc1[N+](=O)[O-])N1O[C@@H]2C=C[C@H]1C2`, the half-inhibitory concentration (IC50) was 45.4 µM (active) at Genome polyprotein, > 100 µM (active) at Protein Tat and > 100 µM (active) in experiment [10]. On Caspase-6, the half-maximal activity concentration (AC50) is 9.9 µM (active). The half-maximal cytotoxic concentration (CC50) in experiment [9] is 36.7 µM (active).

For `COc1ccc2c3c([nH]c2c1)[C@@H](CO)N(C(=O)CN(C)C)CC31CCN(CC2CCCCC2)CC1`, the concentration at half-maximal activity (AC50) in [11] is 0.137 µM (active); in experiment [12], 23.7 µM (active); in [13] it was 0.904 µM (active); in experiment [14], 0.361 µM (active); in [15], 0.731 µM (active).

On to `CN1C(=O)C(=Cc2[nH]c3ccccc3c2CCNC(=S)NC2CC2)C(=O)N(C)C1=O`, for which, on Transthyretin, the EC50 was > 167 µM (inactive).

`COc1cccc(S(=O)(=O)N(C)C[C@@H]2Oc3ncccc3C(=O)N([C@H](C)CO)C[C@@H]2C)c1`: the AC50 in experiment [16] is 9.81 µM (active).

`N#CC1=C(N)Oc2c(ccc3ccccc23)C1c1ccsc1` (centres undefined): the EC50 in the experiment with BJ [17] was 0.182 µM (inconclusive); in the experiment with BJ [18], 0.254 µM (active); in experiment [19], 2.63 µM (active); in experiment [20], 0.253 µM (active); in [21] it was 0.221 µM (active). For the same compound, the AC50 in experiment [22] was 17.7 µM (active).
